From article PMC10620162, “Structure—yeast α-glucosidase inhibitory activity relationship of 9-O-berberrubine carboxylates” (Scientific Reports, 2023)
Like-named read-outs stand apart in the source and are kept apart here.

Experiments:
yeast α-glucosidase [1] = target: T1, yeast α-glucosidase (Saccharomyces cerevisiae, UniProt P53341); test: biochemical; conditions: for inhibition at 50 µM: read-out: Inhibition at 50 μM (%), 50 μM
T1 construct: purchased Sigma Aldrich
Procedure: Berberrubine derivatives will be assayed for yeast α-glucosidase inhibitory activity. The protocol described by Ramadhan et al. will be used[37]. Briefly, yeast α-glucosidase (0.1 U/mL) and substrate (1 mM p-nitrophenyl-α-D-glucopyranoside) were dissolved in 0.1 M phosphate buffer (pH 6.9). A 10 μL test sample was pre-incubated with α-glucosidase (40 μL) at 37 °C for 10 min. A substrate solution (50 μL) was then added to the reaction mixture and incubated at 37 °C for an additional 20 min, and terminated by adding 1 M Na2CO3 solution (100 μL). […] The percentage inhibition of activity was calculated as follows: % Inhibition = [(A0 − A1)/A0] × 100, where: A0 is the absorbance without the sample; A1 is the absorbance with the sample. The IC50 value was deduced from the plot of % inhibition versus the concentration of the test sample.

HepG2 cells = tested on: HepG2 cells; parameters: method as in PMID 27561717; conditions: cited from earlier work; for glucose consumption (GC): HepG2 cells ref 29
[2] = parameters: method as in doi:10.2217/clp.09.41, PMID 16956957; conditions: cited from earlier work
[3] = parameters: method as in PMID 27020531; conditions: at 20 °C ref 19; cited from earlier work
yeast α-glucosidase [4] = target: T1, yeast α-glucosidase; test: kinetic study of α-glucosidase inhibition (Lineweaver–Burk plots); type: biochemical; conditions: for inhibition type: Lineweaver–Burk plot analysis
Procedure: To further investigate how these 9-O-berberrubine carboxylates interact with yeast α-glucosidase, the inhibition types of four potential compounds, 9, 26, 28 and 33 were studied by using Lineweaver–Burk plot analysis.
The mode of inhibition of α-glucosidase was determined from Lineweaver–Burk plots. The inhibition type was determined using various concentrations of p-NPG substrate in the absence or presence of compounds at different concentrations. The Ki value was determined from secondary plots of slope versus [I].

[5] = cytotoxicity study with HEK-293 cells (CellTiter 96 AQueous One); type: cell-based; conditions: human
Procedure: HEK-293 cells (ATCC® CRL-1573™) were maintained in growth medium consisting of DMEM (Gibco®, Langley, OK) supplemented with 10% fetal bovine serum (Gibco®, Langley, OK), 100 I.U./ml penicillin (Bio Basic Canada®, Ontario, CA), 100 μg/ml streptomycin (Bio Basic Canada®, Ontario, CA), and 10 mM HEPES (4-(2-hydroxyethyl)-1-piperazineethanesulfonic acid) (Sigma Aldrich®, St. Louis, MO) at 37 °C under 5% CO2.
The cytotoxicity of the active compounds (9, 26, 28 and 33) was tested with HEK-293 cells. The cells were seeded at 1 × 10^4 cells per well into 96-well plates in growth medium and incubated overnight. The compounds were prepared at the indicated concentrations in dimethylsulfoxide (DMSO) and added to the cells. Cells were incubated for 48 h before analyzing the cell viability using CellTiter 96® AQueous One Solution Cell Proliferation Assay kit (Promega, USA) according to manufacturer’s protocol. The plate was read at the A490 by VICTORTM X3 microplate reader (PerkinElmer, USA). The 1%DMSO treated cells as a positive control (100% viability). The CC50 values were calculated from nonlinear regression analysis. Results were reported as means and standard error mean (SEM) from three biological independent experiments.

yeast α-glucosidase [6] = target: yeast α-glucosidase; parameters: method as in PMID 26917220; conditions: cited from earlier work

T1 sequence (P53341 whole entry): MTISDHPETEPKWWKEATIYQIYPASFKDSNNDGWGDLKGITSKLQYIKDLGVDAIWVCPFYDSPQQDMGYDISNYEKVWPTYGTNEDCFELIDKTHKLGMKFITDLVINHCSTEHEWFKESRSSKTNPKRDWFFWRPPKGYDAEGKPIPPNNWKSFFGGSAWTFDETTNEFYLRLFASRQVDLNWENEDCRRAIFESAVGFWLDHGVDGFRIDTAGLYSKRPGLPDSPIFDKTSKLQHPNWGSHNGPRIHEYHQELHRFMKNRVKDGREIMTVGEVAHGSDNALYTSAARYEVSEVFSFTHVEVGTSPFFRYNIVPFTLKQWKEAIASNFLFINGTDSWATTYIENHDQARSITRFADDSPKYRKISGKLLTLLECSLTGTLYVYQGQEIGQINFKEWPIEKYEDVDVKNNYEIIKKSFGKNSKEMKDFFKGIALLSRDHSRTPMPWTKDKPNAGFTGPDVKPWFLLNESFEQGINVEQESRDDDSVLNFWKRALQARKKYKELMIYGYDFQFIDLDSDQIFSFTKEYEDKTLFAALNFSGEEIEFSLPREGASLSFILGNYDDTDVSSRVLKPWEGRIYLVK

In the case of COc1ccc2cc3[n+](cc2c1OC)CCc1cc2c(cc1-3)OCO2 [BBR, Berberine, reference compound], the inhibition at 50 µM (yeast α-glucosidase [1]) is listed as under 0%, the “glucose consumption (GC)” value (HepG2 cells) is listed as 5.04 mM and the bioavailability [2] is listed as “less than 5%”. The aqueous solubility [3] was ~ 1.8 mg/mL.

For COc1ccc2cc3[n+](cc2c1OC(=O)c1ccccc1OCc1ccccc1)CCc1cc2c(cc1-3)OCO2.[Cl-] [Compound 9, 9-((2-(benzyloxy)benzoyl)oxy)-10-methoxy-5,6-dihydro-[1,3]dioxolo[4,5-g]isoquinolino[3,2-a]isoquinolin-7-ium chloride], the IC50 (yeast α-glucosidase [1]; read-out: IC50) was 2.29 ± 0.08 µM, the inhibition at 50 µM (yeast α-glucosidase [1]) was 100% and the inhibition type (yeast α-glucosidase [4]) was “competitive”. The CC50 at 48 h [5] was 30.5 µM.

COc1ccc2cc3[n+](cc2c1OC(=O)c1cc(C(C)(C)C)cc(C(C)(C)C)c1)CCc1cc2c(cc1-3)OCO2.[Cl-] [Compound 26, 9-((3,5-di-tert-butylbenzoyl)oxy)-10-methoxy-5,6-dihydro-[1,3]dioxolo[4,5-g]isoquinolino[3,2-a]isoquinolin-7-ium chloride] showed an IC50 (yeast α-glucosidase [1]) of 1.61 ± 0.08 µM, an inhibition at 50 µM (yeast α-glucosidase [1]) of 99.8% and a Ki (yeast α-glucosidase [4]) of 10.7 µM. The inhibition type (yeast α-glucosidase [4]) was “competitive” and the CC50 at 48 h [5] was 18.2 µM.

For COc1ccc2cc3[n+](cc2c1OC(=O)c1ccc2ccccc2c1)CCc1cc2c(cc1-3)OCO2.[Cl-] [Compound 28, 9-((2-naphthoyl)oxy)-10-methoxy-5,6-dihydro-[1,3]dioxolo[4,5-g]isoquinolino[3,2-a]isoquinolin-7-ium chloride], the IC50 (yeast α-glucosidase [1]; read-out: IC50) was 2.63 ± 0.23 µM, the inhibition at 50 µM (yeast α-glucosidase [1]) was 95.7% and the inhibition type (yeast α-glucosidase [4]) was “competitive”. For the same compound, the Ki (yeast α-glucosidase [4]; secondary plots of slope versus [I], read-out: inhibition constants (Ki)) was 25.3 µM and the CC50 at 48 h [5] was 20.9 µM.

In the case of COc1ccc2cc3[n+](cc2c1OC(=O)C=Cc1ccccc1)CCc1cc2c(cc1-3)OCO2.[Cl-] [Compound 29, 9-(cinnamoyloxy)-10-methoxy-5,6-dihydro-[1,3]dioxolo[4,5-g]isoquinolino[3,2-a]isoquinolin-7-ium chloride], the IC50 (yeast α-glucosidase [1]) is given as 15.1 ± 0.6 µM, the inhibition at 50 µM (yeast α-glucosidase [1]) is given as 88.5% and the “glucose consumption (GC)” value (HepG2 cells) is given as 6.73 mM. The cytotoxicity (HepG2 cells; compared with berberine ref 29) was “lower than berberine”.

COc1ccc2cc3[n+](cc2c1OC(=O)/C=C/c1c(Cl)cccc1Cl)CCc1cc2c(cc1-3)OCO2 [Compound 32, (E)-9-((3-(2,6-dichlorophenyl)acryloyl)oxy)-10-methoxy-5,6-dihydro-[1,3]dioxolo[4,5-g]isoquinolino[3,2-a]isoquinolin-7-ium chloride] gave an IC50 (yeast α-glucosidase [1]) of 16 ± 0.67 µM and an inhibition at 50 µM (yeast α-glucosidase [1]) of 94.8%.

For COc1ccc2cc3[n+](cc2c1OC(=O)/C=C/C=C/c1ccc2c(c1)OCO2)CCc1cc2c(cc1-3)OCO2.[Cl-] [Compound 33, 9-(((2E,4E)-5-(benzo[d][1,3]dioxol-5-yl)penta-2,4-dienoyl)oxy)-10-methoxy-5,6-dihydro-[1,3]dioxolo[4,5-g]isoquinolino[3,2-a]isoquinolin-7-ium chloride], the IC50 (yeast α-glucosidase [1]; read-out: IC50) was 1.95 ± 0.06 µM, the inhibition at 50 µM (yeast α-glucosidase [1]) was 98.7% and the inhibition type (yeast α-glucosidase [4]) was “competitive”. For the same compound, the CC50 at 48 h [5] was 17.7 µM.

With COc1ccc2cc3[n+](cc2c1OC(=O)Cc1c(Cl)cccc1Cl)CCc1cc2c(cc1-3)OCO2 [Compound 34, 9-(2-(2,6-dichlorophenyl)acetoxy)-10-methoxy-5,6-dihydro-[1,3]dioxolo[4,5-g]isoquinolino[3,2-a]isoquinolin-7-ium chloride] the IC50 (yeast α-glucosidase [1]; read-out: IC50) was 7.3 ± 0.51 µM and the inhibition at 50 µM (yeast α-glucosidase [1]) was 93.9%.

Work on COc1ccc2cc3[n+](cc2c1OC(=O)C(c1ccccc1)c1ccccc1)CCc1cc2c(cc1-3)OCO2 [Compound 35, 9-(2,2-diphenylacetoxy)-10-methoxy-5,6-dihydro-[1,3]dioxolo[4,5-g]isoquinolino[3,2-a]isoquinolin-7-ium chloride] yielded an IC50 (yeast α-glucosidase [1]; read-out: IC50) of 6.19 ± 0.32 µM and an inhibition at 50 µM (yeast α-glucosidase [1]) of 95.2%.

In the case of O=c1c2ccccc2oc2cc(O)cc(O)c12 [Compound X1, 1,3-dihydroxyxanthone], the IC50 (yeast α-glucosidase [6]) is given as 145 µM.

In the case of CC(C)(C)[Si](C)(C)Oc1ccc(C(=O)Oc2cc(O)c3c(=O)c4ccccc4oc3c2)cc1 [Compound X2, 3-Arylacyloxyxanthone], the IC50 (yeast α-glucosidase [6]) is given as 10.6 µM.
